Here are results for 24 compounds from PubChem BioAssay AID248 (DTP/NCI, 2004).

The structures appear in SMILES notation. Where “and” joins values, the source holds several entries; their conditions need not be identical. Identical values can stand only once. Inconclusive results and toxic doses are left out.

This experiment relates to L1210 leukemia ip in BDF1 mice, survival T/C. Description: NCI In Vivo Anticancer Drug Screen. Data for tumor model L1210 Leukemia (intraperitoneal) in B6D2F1 (BDF1) mice. The note with it: endpoint: mean survival time, higher = longer survival. In outline:
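Value reflects the ratio of survival in compound-treated mice to survival in vehicle-treated controls, with both groups carrying the same transplanted tumor.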

[1] abbreviates: dose: 100.0 mg/kg/injection, schedule: Q01DX009 (ip), vehicle: Klucel (hydroxypropylcellulose) (HPC).
Where [2] appears, read: dose: 100.0 mg/kg/injection, schedule: Q04DX002 (ip), vehicle: Klucel (hydroxypropylcellulose) (HPC).
The mark [3] stands for this setting: dose: 200.0 mg/kg/injection, schedule: Q01DX009 (ip), vehicle: Klucel (hydroxypropylcellulose) (HPC).
Where [4] appears, read: dose: 200.0 mg/kg/injection, schedule: Q04DX002 (ip), vehicle: Klucel (hydroxypropylcellulose) (HPC).
Where [5] appears, read: dose: 100.0 mg/kg/injection, schedule: Q01DX001 (ip), vehicle: saline.
The mark [6] stands for this setting: dose: 200.0 mg/kg/injection, schedule: Q01DX001 (ip), vehicle: saline.
Setting [7] is: dose: 400.0 mg/kg/injection, schedule: Q01DX001 (ip), vehicle: saline.
Where [8] appears, read: dose: 25.0 mg/kg/injection, schedule: Q04DX002 (ip), vehicle: saline with Tween-80.
The mark [9] stands for this setting: dose: 50.0 mg/kg/injection, schedule: Q04DX002 (ip), vehicle: saline with Tween-80.
The mark [10] stands for this setting: dose: 100.0 mg/kg/injection, schedule: Q01DX009 (ip), vehicle: gum acacia.
Where [11] appears, read: dose: 100.0 mg/kg/injection, schedule: Q04DX003 (ip), vehicle: gum acacia.
[12] abbreviates: dose: 200.0 mg/kg/injection, schedule: Q04DX003 (ip), vehicle: gum acacia.
Where [13] appears, read: dose: 400.0 mg/kg/injection, schedule: Q01DX009 (ip), vehicle: gum acacia.
[14] abbreviates: dose: 400.0 mg/kg/injection, schedule: Q04DX003 (ip), vehicle: gum acacia.
[15] abbreviates: dose: 100.0 mg/kg/injection, schedule: Q01DX001 (ip), vehicle: saline with Tween-80.
The mark [16] stands for this setting: dose: 200.0 mg/kg/injection, schedule: Q01DX001 (ip), vehicle: saline with Tween-80.
[17] abbreviates: dose: 400.0 mg/kg/injection, schedule: Q01DX001 (ip), vehicle: saline with Tween-80.
[18] abbreviates: dose: 100.0 mg/kg/injection, schedule: Q04DX003 (ip), vehicle: Klucel (hydroxypropylcellulose) (HPC).
The mark [19] stands for this setting: dose: 200.0 mg/kg/injection, schedule: Q04DX003 (ip), vehicle: Klucel (hydroxypropylcellulose) (HPC).

As for `CN=C(N)C(C)SS(=O)(=O)O` (stereo not drawn), the T/C reads like this: (dose: 50.0 mg/kg/injection, schedule: Q01DX009 (ip), vehicle: Klucel (hydroxypropylcellulose) (HPC)) 101 % of control; (dose: 50.0 mg/kg/injection, schedule: Q04DX002 (ip), vehicle: Klucel (hydroxypropylcellulose) (HPC)) 106 % of control; under setting [1], 107 % of control; under setting [2], 92 % of control; under setting [3], 104 % of control; under setting [4], 89 % of control and 91 % of control.

Regarding `Cc1ccc(Br)cc1C(c1cc(Br)ccc1C)C(O)C(O)C(O)C(O)CO` (stereo not drawn), the T/C by setting is: (dose: 50.0 mg/kg/injection, schedule: Q01DX001 (ip), vehicle: saline) 106 % of control; under setting [5], 106 % of control; under setting [6], 110 % of control; under setting [7], 98 % of control.

In the case of `CNC(=O)Oc1ccc2ccccc2c1[N+](=O)[O-]`, the T/C (dose: 75.0 mg/kg/injection, schedule: Q01DX001 (ip), vehicle: other) was 101 % of control.

Regarding `C[Si](C)(C)Cc1ccc(Cl)cc1`, the T/C (dose: 111.0 mg/kg/injection, schedule: Q01DX Z (ip), vehicle: saline) is 104 % of control; the T/C (dose: 166.0 mg/kg/injection, schedule: Q01DX Z (ip), vehicle: saline) is 91 % of control; the T/C (dose: 250.0 mg/kg/injection, schedule: Q01DX Z (ip), vehicle: saline) is 98 % of control.

As for `COc1ccc2c(c1O)-c1cc(O)cc3c1C(C2)NCC3` (stereo not drawn), the T/C was 105 % of control (dose: 0.63 mg/kg/injection, schedule: Q04DX003 (ip), vehicle: DMSO); 96 % of control (dose: 1.25 mg/kg/injection, schedule: Q04DX003 (ip), vehicle: DMSO); 93 % of control (dose: 2.5 mg/kg/injection, schedule: Q04DX003 (ip), vehicle: DMSO).

For `C(#CCN1CCCCC1)CN1CCCCC1`, the T/C is 105 % of control (dose: 75.0 mg/kg/injection, schedule: Q01DX001 (ip), vehicle: saline); 103 % of control (dose: 150.0 mg/kg/injection, schedule: Q01DX001 (ip), vehicle: saline); 101 % of control (dose: 300.0 mg/kg/injection, schedule: Q01DX001 (ip), vehicle: saline).

For `CCOC(=O)C(=O)c1c2cn(O)nc(OC)c-2nc1[N+](=O)[O-]`, the T/C is, setting by setting: (dose: 12.5 mg/kg/injection, schedule: Q04DX002 (ip), vehicle: saline with Tween-80) 89 % of control; under setting [8], 96 % of control; under setting [9], 96 % of control.

In the case of `CCCCN1C(=O)N(c2ccc(OCC)cc2)C2N(CCCC)C1C(C)(C)C2(C)C` (stereo not drawn), the T/C under setting [8] was 103 % of control; the T/C under setting [9] was 118 % of control; the T/C (dose: 100.0 mg/kg/injection, schedule: Q04DX002 (ip), vehicle: saline with Tween-80) is 122 % of control.

For the compound `Cc1cc(Cl)ccc1NC(=O)OCCSc1ccc(Cl)cc1`, the T/C is 94 % of control (dose: 100.0 mg/kg/injection, schedule: Q01DX001 (ip), vehicle: gum acacia); 94 % of control and 95 % of control under setting [10]; 93 % of control and 94 % of control under setting [11]; 101 % of control (dose: 200.0 mg/kg/injection, schedule: Q01DX001 (ip), vehicle: gum acacia); 97 % of control and 91 % of control (dose: 200.0 mg/kg/injection, schedule: Q01DX009 (ip), vehicle: gum acacia); 97 % of control under setting [12]. The T/C reads like this: (dose: 400.0 mg/kg/injection, schedule: Q01DX001 (ip), vehicle: gum acacia) 101 % of control; under setting [13], 93 % of control and 98 % of control; under setting [14], 95 % of control and 90 % of control.

As for `Cl[SiH](Cl)c1ccccc1`, the T/C is 96 % of control under setting [5], 96 % of control under setting [6] and 90 % of control under setting [7].

Consider `O=S(=O)(Nc1ccccn1)c1ccc(N=Nc2ccc(O)c3ncccc23)cc1`, for which the T/C by setting is: under setting [5], 103 % of control; under setting [6], 105 % of control; under setting [7], 103 % of control.

On to `O=C(Nc1ccccc1)Nc1ccccc1Cl`, for which the T/C reads like this: under setting [2], 110 % of control; under setting [4], 93 % of control; (dose: 400.0 mg/kg/injection, schedule: Q04DX002 (ip), vehicle: Klucel (hydroxypropylcellulose) (HPC)) 107 % of control.

Regarding `CCCCC(=O)N1CCCC(C)C1` (stereo not drawn), under setting [2], the T/C is 105 % of control.

As for `C=C(C)CNC(=O)Oc1cccc(NC(=O)OC)c1`, the T/C by setting is: under setting [15], 97 % of control; under setting [16], 95 % of control; under setting [17], 92 % of control.

Consider `S=c1[nH]c(=S)c2[nH]c(=S)[nH]c2[nH]1`, for which the T/C by setting is: under setting [1], 91 % of control; under setting [3], 93 % of control; (dose: 400.0 mg/kg/injection, schedule: Q01DX009 (ip), vehicle: Klucel (hydroxypropylcellulose) (HPC)) 95 % of control.

For `Oc1ccccc1C=NCCN=Cc1ccccc1O`, the T/C is, setting by setting: (dose: 100.0 mg/kg/injection, schedule: Q01DX009 (ip), vehicle: saline with Tween-80) 90 % of control; (dose: 200.0 mg/kg/injection, schedule: Q01DX009 (ip), vehicle: saline with Tween-80) 92 % of control; (dose: 400.0 mg/kg/injection, schedule: Q01DX009 (ip), vehicle: saline with Tween-80) 92 % of control.

`C/C=C\C(=O)N(CC)C(=NCC)c1ccc(NC(=O)c2ccc(C(=O)Nc3ccc(C(=NCC)N(CC)C(=O)/C=C/C)cc3)cc2)cc1`: the T/C is 104 % of control (dose: 0.56 mg/kg/injection, schedule: Q01DX015 (ip), vehicle: methylcellulose (MC)); 112 % of control (dose: 1.12 mg/kg/injection, schedule: Q01DX015 (ip), vehicle: methylcellulose (MC)); 116 % of control (dose: 2.25 mg/kg/injection, schedule: Q01DX015 (ip), vehicle: methylcellulose (MC)); 172 % of control (dose: 4.5 mg/kg/injection, schedule: Q01DX015 (ip), vehicle: methylcellulose (MC)); 164 % of control (dose: 6.25 mg/kg/injection, schedule: Q01DX015 (ip), vehicle: methylcellulose (MC)).

With `CCOC(=O)c1nc(NC)sc1N`, the T/C is 98 % of control (dose: 12.5 mg/kg/injection, schedule: Q01DX009 (ip), vehicle: saline); 104 % of control (dose: 25.0 mg/kg/injection, schedule: Q01DX009 (ip), vehicle: saline); 97 % of control and 98 % of control (dose: 50.0 mg/kg/injection, schedule: Q01DX009 (ip), vehicle: saline); 102 % of control (dose: 100.0 mg/kg/injection, schedule: Q04DX003 (ip), vehicle: saline); 100 % of control (dose: 200.0 mg/kg/injection, schedule: Q04DX003 (ip), vehicle: saline).

For `CCCCCCCCCCCCCC=C(C)C`, the T/C is, setting by setting: under setting [15], 94 % of control; under setting [16], 94 % of control; under setting [17], 87 % of control.

As for `ClB(Cl)c1ccccc1`, the T/C is, setting by setting: under setting [5], 92 % of control; under setting [6], 92 % of control; under setting [7], 101 % of control.

On to `O=C(Nc1ccc(N=Nc2ccccc2)cc1)Nc1cc([N+](=O)[O-])ccc1F`, for which the T/C is, setting by setting: under setting [18], 86 % of control; under setting [19], 86 % of control; (dose: 400.0 mg/kg/injection, schedule: Q04DX003 (ip), vehicle: Klucel (hydroxypropylcellulose) (HPC)) 91 % of control.

With `Cc1cccc(C)c1NC(=O)Nc1cccc2ccccc12`, the T/C is 93 % of control under setting [10]; 98 % of control under setting [11]; 95 % of control under setting [12]; 94 % of control under setting [13]; 91 % of control under setting [14].

For the compound `COC(=O)C1C2c3ccccc3C(C1C(=O)OC)[n+]1ccccc12` (stereo not drawn), the T/C reads like this: under setting [18], 95 % of control; under setting [19], 98 % of control.

For `CC1(C)OB(C(Br)(B2OC(C)(C)C(C)(C)O2)B2OC(C)(C)C(C)(C)O2)OC1(C)C`, the T/C by setting is: (dose: 100.0 mg/kg/injection, schedule: Q01DX001 (ip), vehicle: Klucel (hydroxypropylcellulose) (HPC)) 100 % of control; (dose: 200.0 mg/kg/injection, schedule: Q01DX001 (ip), vehicle: Klucel (hydroxypropylcellulose) (HPC)) 100 % of control; (dose: 400.0 mg/kg/injection, schedule: Q01DX001 (ip), vehicle: Klucel (hydroxypropylcellulose) (HPC)) 108 % of control.
